In brackets after ≈: the same amount, converted by molar mass.
Experiments:
Pseudomonas aeruginosa [1] = assay: Antimicrobial activity against Pseudomonas aeruginosa PAO1 after 18 hrs by microdilution method in presence of 0.4 uM iron; format: functional
Pseudomonas aeruginosa [2] = assay: Antimicrobial activity against Pseudomonas aeruginosa 27853 after 18 hrs by microdilution method in presence of 40 uM iron; format: functional
Pseudomonas aeruginosa [3] = assay: Antimicrobial activity against Pseudomonas aeruginosa 27853 after 18 hrs by microdilution method in presence of 4 uM iron; format: functional
Pseudomonas aeruginosa [4] = assay: Antimicrobial activity against Pseudomonas aeruginosa PAO1 after 18 hrs by microdilution method in presence of 40 uM iron; format: functional
Pseudomonas aeruginosa [5] = assay: Antimicrobial activity against Pseudomonas aeruginosa 27853 after 18 hrs by microdilution method in presence of 0.4 uM iron; format: functional
Pseudomonas aeruginosa [6] = assay: Antimicrobial activity against Pseudomonas aeruginosa PAO1 after 18 hrs by microdilution method in presence of 4 uM iron; format: functional
Klebsiella pneumoniae [7] = assay: Antibacterial activity against ESBL positive Klebsiella pneumoniae 09-25 after 18 hrs by agar dilution assay; format: functional; conditions: 09-25, 18 h
Escherichia coli [8] = assay: Antibacterial activity against ESBL negative Escherichia coli 09-20 after 18 hrs by agar dilution assay; format: functional; conditions: 09-20, 18 h
Klebsiella pneumoniae [9] = assay: Antibacterial activity against ESBL positive Klebsiella pneumoniae 700603 after 18 hrs by agar dilution assay; format: functional; conditions: Klebsiella pneumoniae, 700603, 18 h
Pseudomonas aeruginosa [10] = assay: Antibacterial activity against BL positive Pseudomonas aeruginosa 09-14 after 18 hrs by agar dilution assay; format: functional; conditions: 09-14, 18 h
Klebsiella aerogenes = assay: Antibacterial activity against beta-lactamase producing Enterobacter aerogenes 45102 after 18 hrs by agar dilution assay; format: functional; conditions: Klebsiella aerogenes, 45102, 18 h
Escherichia coli [11] = assay: Antibacterial activity against Escherichia coli BL21 by microbroth dilution assay; format: functional
Pseudomonas aeruginosa [12] = assay: microbe, parasite or virus in culture; conditions: Pseudomonas aeruginosa, 27853, 18 h
Description: Antimicrobial activity against Pseudomonas aeruginosa 27853 after 18 hrs by microdilution method in absence of iron

Proteus mirabilis = assay: Antibacterial activity against beta-lactamase producing Proteus mirabilis 09-1 after 18 hrs by agar dilution assay; format: functional; conditions: 09-1, 18 h
Pseudomonas aeruginosa [13] = assay: Antibacterial activity against BL positive Pseudomonas aeruginosa PAO1 after 18 hrs by agar dilution assay; format: functional; conditions: PAO1, 18 h
Morganella morganii = assay: Antibacterial activity against beta-lactamase producing Morganella morganii 25830 after 18 hrs by agar dilution assay; format: functional; conditions: Morganella morganii, 25830, 18 h
Klebsiella pneumoniae [14] = assay: Antibacterial activity against ESBL negative Klebsiella pneumoniae 7 after 18 hrs by agar dilution assay; format: functional; conditions: Klebsiella pneumoniae, 7, 18 h
Klebsiella pneumoniae [15] = assay: Antibacterial activity against NDM-1 positive Klebsiella pneumoniae BAA-2146 after 18 hrs by agar dilution assay; format: functional; conditions: BAA-2146, 18 h
Escherichia coli [16] = assay: Antibacterial activity against ESBL negative Escherichia coli 25922 after 18 hrs by agar dilution assay; format: functional; conditions: Escherichia coli, 25922, 18 h
Proteus vulgaris = assay: Antibacterial activity against beta-lactamase producing Proteus vulgaris 29905 after 18 hrs by agar dilution assay; format: functional; conditions: Proteus vulgaris, 29905, 18 h
Escherichia coli [17] = assay: Selectivity ratio of MIC for Escherichia coli BL21 to MIC for acrAB and acrEF knock-out Escherichia coli BL21; format: functional
Escherichia coli [18] = assay: Antibacterial activity against ESBL negative Escherichia coli 1515 after 18 hrs by agar dilution assay; format: functional; conditions: Escherichia coli, 1515, 18 h
Salmonella typhi = assay: Antibacterial activity against beta-lactamase producing Salmonella typhi H901 after 18 hrs by agar dilution assay; format: functional, Salmonella enterica subsp. enterica serovar Typhi; conditions: Salmonella enterica, H901, 18 h
Klebsiella pneumoniae [19] = assay: Antibacterial activity against ESBL negative Klebsiella pneumoniae 09-8 after 18 hrs by agar dilution assay; format: functional; conditions: 09-8, 18 h
Escherichia coli [20] = assay: Antibacterial activity against acrAB and acrEF knock-out Escherichia coli BL21 by microbroth dilution assay; format: functional
Pseudomonas aeruginosa [21] = assay: Antimicrobial activity against Pseudomonas aeruginosa PAO1 after 18 hrs by microdilution method in absence of iron; conditions: PAO1, 18 h
Providencia rettgeri = assay: Antibacterial activity against Providencia rettgeri 31052 after 18 hrs by agar dilution assay; format: functional; conditions: Providencia rettgeri, 31052, 18 h
Pseudomonas aeruginosa [22] = assay: Antibacterial activity against BL positive Pseudomonas aeruginosa 27853 after 18 hrs by agar dilution assay; format: functional; conditions: Pseudomonas aeruginosa, 27853, 18 h
Enterobacter cloacae = assay: Antibacterial activity against beta-lactamase producing Enterobacter cloacae 45301 after 18 hrs by agar dilution assay; format: functional; conditions: Enterobacter cloacae, 45301, 18 h
Citrobacter freundii = assay: Antibacterial activity against beta-lactamase producing Citrobacter freundii 43864 after 18 hrs by agar dilution assay; format: functional; conditions: Citrobacter freundii, 43864, 18 h
Escherichia coli [23] = assay: Antibacterial activity against ESBL positive Escherichia coli 09-1 after 18 hrs by agar dilution assay; format: functional; conditions: 09-1, 18 h
Serratia marcescens = assay: Antibacterial activity against beta-lactamase producing Serratia marcescens 41002 after 18 hrs by agar dilution assay; format: functional; conditions: Serratia marcescens, 41002, 18 h
[24] = Pseudomonas aeruginosa, 27853, 18 h

## GENTAMICIN
Pseudomonas aeruginosa [1]
  MIC: 128 µg/mL
Pseudomonas aeruginosa [2]
  MIC: 128 µg/mL
Pseudomonas aeruginosa [3]
  MIC: 1 µg/mL
Pseudomonas aeruginosa [4]
  MIC: 128 µg/mL
Pseudomonas aeruginosa [5]
  MIC: 1 µg/mL
Pseudomonas aeruginosa [6]
  MIC: 1 µg/mL

## CC1(C)[C@H](NC(=O)/C(=N\OCc2ccccn2)c2csc(N)n2)C(=O)N1S(=O)(=O)O
Klebsiella pneumoniae [7]
  MIC: 32 µg/mL (≈ 70.4 µM)
Escherichia coli [8]
  MIC: 4 µg/mL (≈ 8.8 µM)
Klebsiella pneumoniae [9]
  MIC: > 128 µg/mL
Pseudomonas aeruginosa [10]
  MIC: 64 µg/mL (≈ 141 µM)
Pseudomonas aeruginosa [1]; PAO1, 18 h
  MIC: 64 µg/mL
Klebsiella aerogenes
  MIC: 8 µg/mL (≈ 17.6 µM)
Escherichia coli [11]
  MIC: 2 µg/mL (≈ 4.4 µM)
Pseudomonas aeruginosa [12]
  MIC: 128 µg/mL (≈ 282 µM)
Proteus mirabilis
  MIC: 2 µg/mL (≈ 4.4 µM)
Pseudomonas aeruginosa [13]
  MIC: 32 µg/mL (≈ 70.4 µM)
Morganella morganii
  MIC: 0.5 µg/mL (≈ 1.1 µM)
Klebsiella pneumoniae [14]
  MIC: 4 µg/mL (≈ 8.8 µM)
Pseudomonas aeruginosa [2]; [24]
  MIC: 128 µg/mL
Klebsiella pneumoniae [15]
  MIC: 16 µg/mL (≈ 35.2 µM)
Escherichia coli [16]
  MIC: 2 µg/mL (≈ 4.4 µM)
Pseudomonas aeruginosa [3]; [24]
  MIC: 128 µg/mL
Pseudomonas aeruginosa [4]; PAO1, 18 h
  MIC: 64 µg/mL
Proteus vulgaris
  MIC: 0.125 µg/mL (≈ 0.275 µM)
Escherichia coli [17]
  Selectivity ratio: >16
Escherichia coli [18]
  MIC: 2 µg/mL (≈ 4.4 µM)
Salmonella typhi
  MIC: 32 µg/mL (≈ 70.4 µM)
Klebsiella pneumoniae [19]
  MIC: 4 µg/mL (≈ 8.8 µM)
Escherichia coli [20]
  MIC: ≤ 0.06 µg/mL
Pseudomonas aeruginosa [21]
  MIC: 64 µg/mL (≈ 141 µM)
Providencia rettgeri
  MIC: 0.06 µg/mL (≈ 0.132 µM)
Pseudomonas aeruginosa [22]
  MIC: 64 µg/mL (≈ 141 µM)
Pseudomonas aeruginosa [5]; [24]
  MIC: 128 µg/mL
Enterobacter cloacae
  MIC: 1 µg/mL (≈ 2.2 µM)
Citrobacter freundii
  MIC: 2 µg/mL (≈ 4.4 µM)
Escherichia coli [23]
  MIC: 4 µg/mL (≈ 8.8 µM)
Serratia marcescens
  MIC: 8 µg/mL (≈ 17.6 µM)
Pseudomonas aeruginosa [6]; PAO1, 18 h
  MIC: 128 µg/mL

## CCN(CC)CC.C[C@H]1[C@H](NC(=O)/C(=N\OCc2ccc(C(=O)N/N=C/c3ccccc3O)cc2)c2csc(N)n2)C(=O)N1S(=O)(=O)O (relative stereo)
Klebsiella pneumoniae [7]
  MIC: > 64 µg/mL
Escherichia coli [8]
  MIC: 64 µg/mL
Klebsiella pneumoniae [9]
  MIC: > 64 µg/mL
Pseudomonas aeruginosa [10]
  MIC: 4 µg/mL
Pseudomonas aeruginosa [1]; PAO1, 18 h
  MIC: 128 µg/mL
Klebsiella aerogenes
  MIC: 2 µg/mL
Escherichia coli [11]
  MIC: 64 µg/mL
Pseudomonas aeruginosa [12]
  MIC: 128 µg/mL
Proteus mirabilis
  MIC: 8 µg/mL
Pseudomonas aeruginosa [13]
  MIC: 4 µg/mL
Morganella morganii
  MIC: 2 µg/mL
Klebsiella pneumoniae [14]
  MIC: 2 µg/mL
Pseudomonas aeruginosa [2]; [24]
  MIC: > 128 µg/mL
Klebsiella pneumoniae [15]
  MIC: > 64 µg/mL
Escherichia coli [16]
  MIC: 4 µg/mL
Pseudomonas aeruginosa [3]; [24]
  MIC: 128 µg/mL
Pseudomonas aeruginosa [4]; PAO1, 18 h
  MIC: > 128 µg/mL
Proteus vulgaris
  MIC: 0.25 µg/mL
Escherichia coli [17]
  Selectivity ratio: >16
Escherichia coli [18]
  MIC: 2 µg/mL
Salmonella typhi
  MIC: 0.5 µg/mL
Klebsiella pneumoniae [19]
  MIC: 16 µg/mL
Escherichia coli [20]
  MIC: 2 µg/mL
Pseudomonas aeruginosa [21]
  MIC: > 128 µg/mL
Providencia rettgeri
  MIC: ≤ 0.03 µg/mL
Pseudomonas aeruginosa [22]
  MIC: 8 µg/mL
Pseudomonas aeruginosa [5]; [24]
  MIC: 128 µg/mL
Enterobacter cloacae
  MIC: 2 µg/mL
Citrobacter freundii
  MIC: 4 µg/mL
Escherichia coli [23]
  MIC: 64 µg/mL
Serratia marcescens
  MIC: 8 µg/mL
Pseudomonas aeruginosa [6]; PAO1, 18 h
  MIC: 128 µg/mL

## CC1(C)[C@H](NC(=O)/C(=N\OCc2cccnc2)c2csc(N)n2)C(=O)N1S(=O)(=O)O
Klebsiella pneumoniae [7]
  MIC: 8 µg/mL (≈ 17.6 µM)
Escherichia coli [8]
  MIC: 4 µg/mL (≈ 8.8 µM)
Klebsiella pneumoniae [9]
  MIC: 64 µg/mL (≈ 141 µM)
Pseudomonas aeruginosa [10]
  MIC: > 128 µg/mL
Pseudomonas aeruginosa [1]; PAO1, 18 h
  MIC: > 128 µg/mL
Klebsiella aerogenes
  MIC: 8 µg/mL (≈ 17.6 µM)
Escherichia coli [11]
  MIC: 32 µg/mL (≈ 70.4 µM)
Pseudomonas aeruginosa [12]
  MIC: > 128 µg/mL
Proteus mirabilis
  MIC: 32 µg/mL (≈ 70.4 µM)
Pseudomonas aeruginosa [13]
  MIC: 128 µg/mL (≈ 282 µM)
Morganella morganii
  MIC: 0.5 µg/mL (≈ 1.1 µM)
Klebsiella pneumoniae [14]
  MIC: 4 µg/mL (≈ 8.8 µM)
Pseudomonas aeruginosa [2]; [24]
  MIC: > 128 µg/mL
Klebsiella pneumoniae [15]
  MIC: 32 µg/mL (≈ 70.4 µM)
Escherichia coli [16]
  MIC: 8 µg/mL (≈ 17.6 µM)
Pseudomonas aeruginosa [3]; [24]
  MIC: > 128 µg/mL
Pseudomonas aeruginosa [4]; PAO1, 18 h
  MIC: > 128 µg/mL
Proteus vulgaris
  MIC: 0.25 µg/mL (≈ 0.55 µM)
Escherichia coli [17]
  Selectivity ratio: >16
Escherichia coli [18]
  MIC: 16 µg/mL (≈ 35.2 µM)
Salmonella typhi
  MIC: 32 µg/mL (≈ 70.4 µM)
Klebsiella pneumoniae [19]
  MIC: 8 µg/mL (≈ 17.6 µM)
Escherichia coli [20]
  MIC: 0.5 µg/mL (≈ 1.1 µM)
Pseudomonas aeruginosa [21]
  MIC: > 128 µg/mL
Providencia rettgeri
  MIC: 0.03 µg/mL (≈ 0.066 µM)
Pseudomonas aeruginosa [22]
  MIC: > 128 µg/mL
Pseudomonas aeruginosa [5]; [24]
  MIC: > 128 µg/mL
Enterobacter cloacae
  MIC: 4 µg/mL (≈ 8.8 µM)
Citrobacter freundii
  MIC: 4 µg/mL (≈ 8.8 µM)
Escherichia coli [23]
  MIC: 4 µg/mL (≈ 8.8 µM)
Serratia marcescens
  MIC: 8 µg/mL (≈ 17.6 µM)
Pseudomonas aeruginosa [6]; PAO1, 18 h
  MIC: > 128 µg/mL
